Literature values, collected in patent publication US20220395497A1, “Cancer Treatment Using Camptothecin Derivatives” (priority 2019, published 2022).
Read-outs that look alike come from different tables or passages of the source. Marks after values point to notes of the source that are not given here.

What was measured:
[1] = test system: reGBM patients; conditions: cited from earlier work; for Diarrhoea Grades 3-5 / Neutropenia Grades 3-4 / Thrombocytopenia Grades 3-4: reGBM, single agent
[2] = test system: Colorectal cancer patients; conditions: w/5FU, LV, bolus, N = 225; cited from earlier work
[3] = test system: Metastatic Colorectal cancer patients; conditions: previously treated, cited from earlier work
[4] = test system: Recurrent Colorectal cancer patients; conditions: N = 316 across 2 studies, cited from earlier work
[5] = test system: Colorectal cancer patients; conditions: single agent, bolus, N = 223; cited from earlier work
[6] = test system: reGBM patients; conditions: cited from earlier work
[7] = test system: reGBM patients; conditions: single agent/placebo, N = 64; cited from earlier work
[8] = test system: reGBM patients; conditions: single agent vs Enzastaurin, N = 92, Treated = 84; cited from earlier work
[9] = in vivo; cited from earlier work
[10] = test system: cells in the S phase of the cell cycle; conditions: in vitro; cited from earlier work
[11] = test system: GBM/AA patients; conditions: single agent Phase II, N = 20 in heavily pretreated bev failures; cited from earlier work
[12] = test system: BCBM patients; conditions: Phase 3 BEACON Study, N = 425; cited from earlier work

CC[C@@]1(O)C(=O)OCc2c1cc1n(c2=O)Cc2c-1nc1ccccc1c2/C=N/OC(C)(C)C [Gimatecan]
treatment-related toxicities of thrombocytopenia, leukopenia, and neutropenia, patients ([1]; Phase II trial, oral): 10-18%
PFS6 ([1]; in vivo): 12%
Diarrhoea Grades 3-5 ([1]; N = 10 High Dose): 0%
Neutropenia Grades 3-4 ([1]; N = 10 High Dose): 30%
Thrombocytopenia Grades 3-4 ([1]; N = 10 High Dose): 40%
Diarrhoea Grades 3-5 ([1]; N = 10 Low Dose): 0%
Neutropenia Grades 3-4 ([1]; N = 10 Low Dose): 0%
Thrombocytopenia Grades 3-4 ([1]; N = 10 Low Dose): 5%

CCc1c2c(nc3ccc(OC(=O)N4CCC(N5CCCCC5)CC4)cc13)-c1cc3c(c(=O)n1C2)COC(=O)[C@]3(O)CC [Irinotecan]
Diarrhoea Grade 4 [2]: 5%
Nausea Grades 3,4 [2]: 16%
Neutropenia Grade 4 [2]: 24%
Vomiting Grades 3,4 [2]: 10%
Diarrhoea Grade 4 ([3]; N = 304, late diarrhoea): 14%**
Nausea Grades 3,4 ([3]; N = 304): 17%
Neutropenia Grade 4 ([3]; N = 304): 12%
Vomiting Grades 3,4 ([3]; N = 304): 12%
Diarrhoea Grade 4 ([4]; average across 2 studies): 22%*
Nausea Grades 3,4 ([4]; average across 2 studies): 12%*
Vomiting Grades 3,4 ([4]; average across 2 studies): 14%*
Neutropenia Grade 4 [4]: 18%
Diarrhoea Grade 4 [5]: 7%
Nausea Grades 3,4 [5]: 16%
Neutropenia Grade 4 [5]: 12%
Vomiting Grades 3,4 [5]: 12%

CC[C@@]1(O)C(=O)OCc2c1cc1n(c2=O)Cc2c-1nc1ccccc1c2CC[Si](C)(C)C [Karenitecin]
neutropenia and thrombocytopenia, patients ([6]; Phase I trial): 13-23%
Diarrhoea Grades 3-5 ([6]; reGBM, single agent, N = 30): 3%
Neutropenia Grades 3-4 ([6]; reGBM, single agent, N = 30): 23%
Thrombocytopenia Grades 3-4 ([6]; reGBM, single agent, N = 30): 13%

O=NN(CCCl)C(=O)NC1CCCCC1 [Lomustine]
Diarrhoea Grades 3-5 [7]: 2%
Neutropenia Grades 3-4 [7]: 3%
Thrombocytopenia Grades 3-4 [7]: 22%
Nausea Grades 3-5 [8]: 0%
Neutropenia Grades 3-4 [8]: 20%
Thrombocytopenia Grades 3-4 [8]: 25%

CCc1c2c(nc3ccc(O)cc13)-c1cc3c(c(=O)n1C2)COC(=O)[C@]3(O)CC [SN-38]
ratio of the lactone AUC to total AUC [9]: 0.51

CC[C@@]1(O)C(=O)OCc2c1cc1n(c2=O)Cc2cc3ccccc3nc2-1 [camptothecin]
sensitivity to camptothecin-induced apoptosis, S phase cells vs cells in the G1 or G2 phase [10]: 100 to 1,000 times

CC[C@@]1(O)C(=O)OCc2c1cc1n(c2=O)Cc2cc3c(CN(C)C)c(O)ccc3nc2-1 [topotecan]
ratio of the lactone AUC to total AUC [9]: 0.37

Etirinotecan
Diarrhoea Grades 3-5 [11]: 10%
Diarrhoea Grades 3-5 [12]: 10%
Nausea Grades 3-5 [12]: 4%
Neutropenia Grades 3-4 [12]: 10%
